We go through three compounds from ChEMBL document CHEMBL3351703, “Probing the selective antitumor activity of 22-oxo-26-selenocyanocholestane derivatives” (Eur J Med Chem, 2014).

Calls of active or inactive are those of the source. No cut-off for these calls is given here.

Data set [1] concerns ViBo. Kind of data set: Induction of apoptosis in human ViBo cells assessed as caspase-3 activation at 95 to 97 uM after 15 mins by DAPI staining-based epifluorescence microscopic analysis. In kind it is functional, cell-based.
The nature of data set [2]: Cell cycle arrest in human ViBo cells assessed as accumulation at S phase at IC50 after 24 hrs by propidium iodide staining-based flow cytometric analysis relative to control. The format is functional. A general note: In flow cytometry, cells or beads pass a laser one at a time.
Data set [3] in a line: Cytotoxicity against human CaSki cells at IC50 after 24 hrs by LDH release assay relative to control. In kind it is functional, Ca-Ski. On the technique in general: LDH leaks from cells whose membrane has failed.
For data set [4], the system named is HeLa. Put plainly: Cell cycle arrest in human HeLa cells assessed as accumulation at S phase at IC50 after 24 hrs by propidium iodide staining-based flow cytometric analysis relative to control. The format is functional.
Data set [5] can be described thus: Cell cycle arrest in human CaSki cells assessed as accumulation at sub-G1 phase at IC50 after 24 hrs by propidium iodide staining-based flow cytometric analysis relative to control. To be noted: Ca-Ski. In kind it is functional.
In data set [6] the test system is Ca-Ski. Kind of data set: Induction of apoptosis in human CaSki cells assessed as chromatin condensation by DAPI staining-based fluorescence microscopic analysis. In kind it is functional, cell-based.
In data set [7] the test system is HeLa. Kind of data set: Cytotoxicity against human HeLa cells at IC50 after 24 hrs by LDH release assay relative to control. The format is functional.
A short description of data set [8]: Cell cycle arrest in human CaSki cells assessed as accumulation at S phase at IC50 after 24 hrs by propidium iodide staining-based flow cytometric analysis relative to control. In kind it is functional. To be noted: Ca-Ski.
In data set [9] the test system is ViBo. Kind of data set: Induction of apoptosis in human ViBo cells assessed as DNA fragmentation at 95 to 97 uM after 24 hrs by TUNEL assay. In kind it is functional, cell-based.
The nature of data set [10]: Cytotoxicity against human ViBo cells at IC50 after 24 hrs by LDH release assay relative to control. In kind it is functional.
Data set [11] has as its system Ca-Ski. Put plainly: Induction of apoptosis in human CaSki cells assessed as effect on cell morphology. In kind it is functional, cell-based.
The nature of data set [12]: Cell cycle arrest in human CaSki cells assessed as accumulation at G2/M phase at IC50 after 24 hrs by propidium iodide staining-based flow cytometric analysis relative to control. In kind it is functional. As to conditions: Ca-Ski.
The test system of data set [13] is ViBo. Put plainly: Induction of apoptosis in human ViBo cells assessed as effect on cell morphology. The format is functional, cell-based.
In data set [14] the test system is HeLa. Put plainly: Induction of apoptosis in human HeLa cells assessed as chromatin condensation by DAPI staining-based fluorescence microscopic analysis. In kind it is functional, cell-based.
Data set [15] can be described thus: Cytotoxicity against PHA-activated human lymphocytes at IC50 after 72 hrs by LDH release assay. In kind it is cell-based. To be noted: lymphocyte.
The subject of data set [16] is HeLa. Put plainly: Cell cycle arrest in human HeLa cells assessed as accumulation at sub-G1 phase at IC50 after 24 hrs by propidium iodide staining-based flow cytometric analysis relative to control. The format is functional.
Data set [17] concerns Ca-Ski. Kind of data set: Induction of apoptosis in human CaSki cells assessed as DNA fragmentation at 95 to 97 uM after 24 hrs by TUNEL assay. The format is functional, cell-based.
Data set [18] concerns ViBo. Put plainly: (§1) Antiproliferative activity against human ViBo cells after 24 hrs by MTT assay. In kind it is functional, cell-based. A general note: Tetrazolium dyes change colour on reduction, which living cells bring about.
Data set [19] can be described thus: as §1. The format is functional, cell-based.
The subject of data set [20] is HeLa. Kind of data set: Induction of apoptosis in human HeLa cells assessed as effect on cell morphology. In kind it is functional, cell-based.
The subject of data set [21] is ViBo. Kind of data set: Induction of apoptosis in human ViBo cells assessed as chromatin condensation by DAPI staining-based fluorescence microscopic analysis. The format is functional, cell-based.
A short description of data set [22]: Cell cycle arrest in human ViBo cells assessed as accumulation at G2/M phase at IC50 after 24 hrs by propidium iodide staining-based flow cytometric analysis relative to control. In kind it is functional.
In a further data set the test system is PBMC. Put plainly: Immunosuppressive activity in PHA-stumulated CSFE labeled human enriched PBMC assessed as cell growth at IC50 after 72 hrs by flow cytometric analysis (reference value: 65.90%). In kind it is functional.
In data set [23] the test system is Ca-Ski. Kind of data set: Induction of apoptosis in human CaSki cells assessed as caspase-3 activation at 95 to 97 uM after 15 mins by DAPI staining-based epifluorescence microscopic analysis. The format is functional, cell-based.
Data set [24] in a line: Cell cycle arrest in human ViBo cells assessed as accumulation at sub-G1 phase at IC50 after 24 hrs by propidium iodide staining-based flow cytometric analysis relative to control. The format is functional.
Data set [25] relates to HeLa. Kind of data set: Induction of apoptosis in human HeLa cells assessed as caspase-3 activation at 95 to 97 uM after 15 mins by DAPI staining-based epifluorescence microscopic analysis. The format is functional, cell-based.
Data set [26] relates to HeLa. Put plainly: Induction of apoptosis in human HeLa cells assessed as DNA fragmentation at 95 to 97 uM after 24 hrs by TUNEL assay. The format is functional, cell-based.
Data set [27] has as its system Ca-Ski. Kind of data set: (§2) Antiproliferative activity against human CaSki cells after 24 hrs by MTT assay. The format is functional, cell-based.
Data set [28] in a line: as §2. The format is functional, cell-based. As to conditions: Ca-Ski.
Data set [29] can be described thus: Cell cycle arrest in human ViBo cells assessed as accumulation at G1 phase at IC50 after 24 hrs by propidium iodide staining-based flow cytometric analysis relative to control. In kind it is functional.
Data set [30] relates to HeLa. Put plainly: Cell cycle arrest in human HeLa cells assessed as accumulation at G2/M phase at IC50 after 24 hrs by propidium iodide staining-based flow cytometric analysis relative to control. In kind it is functional.
Data set [31] in a line: Cell cycle arrest in human CaSki cells assessed as accumulation at G1 phase at IC50 after 24 hrs by propidium iodide staining-based flow cytometric analysis relative to control. In kind it is functional. To be noted: Ca-Ski.
In data set [32] the test system is HeLa. Kind of data set: Antiproliferative activity against human HeLa cells after 24 hrs by MTT assay. In kind it is functional, cell-based.
Data set [33] deals with HeLa. Kind of data set: Cell cycle arrest in human HeLa cells assessed as accumulation at G1 phase at IC50 after 24 hrs by propidium iodide staining-based flow cytometric analysis (reference value: 62.51 +/- 3.76%). The format is functional.
In data set [34] the test system is Ca-Ski. Kind of data set: Induction of apoptosis in human CaSki cells assessed as caspase-3 activation at 10 to 18 uM after 15 mins by DAPI staining-based epifluorescence microscopic analysis. The format is functional, cell-based.
For data set [35], the system named is HeLa. Kind of data set: Induction of apoptosis in human HeLa cells assessed as DNA fragmentation at 10 to 18 uM after 24 hrs by TUNEL assay. The format is functional, cell-based.
For data set [36], the system named is Ca-Ski. Kind of data set: Induction of apoptosis in human CaSki cells assessed as DNA fragmentation at 10 to 18 uM after 24 hrs by TUNEL assay. In kind it is functional, cell-based.
The test system of data set [37] is ViBo. Kind of data set: Induction of apoptosis in human ViBo cells assessed as DNA fragmentation at 10 to 18 uM after 24 hrs by TUNEL assay. The format is functional, cell-based.
For data set [38], the system named is HeLa. Put plainly: Induction of apoptosis in human HeLa cells assessed as caspase-3 activation at 10 to 18 uM after 15 mins by DAPI staining-based epifluorescence microscopic analysis. The format is functional, cell-based.
Data set [39] relates to ViBo. Kind of data set: Induction of apoptosis in human ViBo cells assessed as caspase-3 activation at 10 to 18 uM after 15 mins by DAPI staining-based epifluorescence microscopic analysis. In kind it is functional, cell-based.

As a reminder, the IC50 is the concentration that inhibits the measured activity by half. Lower therefore signals greater potency in that assay. As to `CC(=O)O[C@H]1CC[C@@]2(C)[C@@H](CC[C@@H]3[C@@H]2CC(=O)[C@]2(C)[C@@H]([C@H](C)C(=O)CC[C@@H](C)C[Se]C#N)[C@@H](OC(C)=O)C[C@@H]32)C1`, the outcome in the data set with ViBo [1], in the data set on Ca-Ski [6], in the data set with ViBo [9], in the data set on Ca-Ski [11], with ViBo [13] and in the data set with HeLa [14] was Active. The outcome in the data set on Ca-Ski [17], with HeLa [20], in the data set with ViBo [21], in the data set with Ca-Ski [23], in the data set on HeLa [25] and in the data set on HeLa [26] was Active. Besides, the Activity in data set [2] worked out at 16.2%; in [3], 0%; with HeLa [4], 18.54%; in data set [5] it was 8.2%; in the data set on HeLa [7], 27%; in data set [8], 19.4%. In addition, the Activity in data set [10] is 16%; in data set [12] it was 13.2%; in [15], “Non-toxic”; in the data set on HeLa [16], 4.74%; in the data set with ViBo [18] it was “Dose-dependent effect”; in data set [22], 5.8%. Moreover, the Activity in the data set with PBMC is 25.28%; in data set [24], 10.8%; with Ca-Ski [27], “Dose-dependent effect”; in [29] it was 59.3%; with HeLa [30], 10.9%; in data set [31], 49.2%. In addition, the figures for the Activity result with HeLa [32] and with HeLa [33] were “Dose-dependent effect” and 64.04%, respectively. The IC50 in [19] is 97 µM; in data set [28], 97 µM; in the data set on HeLa [32], 95 µM.
In the case of `CC(=O)O[C@H]1C(=O)[C@@]2(C)[C@H]([C@H](OC(=O)c3ccccc3)[C@]3(O)C[C@H](OC(=O)[C@H](O)[C@@H](NC(=O)c4ccccc4)c4ccccc4)C(C)=C1C3(C)C)[C@]1(OC(C)=O)CO[C@@H]1C[C@@H]2O` [PACLITAXEL], the IC50 in data set [19] was 1.6 µM; in data set [28], 2.9 µM.
With `CC(=O)O[C@H]1CC[C@@]2(C)C(=CC[C@H]3[C@@H]4C[C@H](OC(C)=O)[C@H]([C@H](C)C(=O)CC[C@@H](C)C[Se]C#N)[C@@]4(C)CC[C@@H]32)C1`, the Activity in data set [2] was determined as 8.67%; in [3], 33%; in the data set on HeLa [4] it was 17.04%; in [5], 41.4%; in the data set on HeLa [7], 72%; in data set [8], 18.9%. In addition, the Activity is 45% in [10]; 9.68% in data set [12]; “Non-toxic” in [15]; 12.6% with HeLa [16]; “Dose-dependent effect” in the data set with ViBo [18]; 7.27% in data set [22]. The Activity in the data set on PBMC is 51.96%; in data set [24] it was 8.13%; in the data set on Ca-Ski [27], “Dose-dependent effect”; in [29], 69.5%; with HeLa [30] it was 11.58%; in [31], 31.2%. Moreover, the Activity entry with HeLa [32] is “Dose-dependent effect”; with HeLa [33], 56.19%. For the same compound, the result with Ca-Ski [6], with Ca-Ski [34], in the data set on Ca-Ski [11], with HeLa [35], in the data set on Ca-Ski [36] and with ViBo [13] was Active. For the same compound, the outcome in the data set with HeLa [14], in the data set on ViBo [37], in the data set with HeLa [20], in the data set on ViBo [21], with HeLa [38] and in the data set with ViBo [39] was Active. In addition, the values for the IC50 (in data set [19]; in [28]; with HeLa [32]) were 18 µM, 15 µM and 10 µM, respectively.
